From PubChem BioAssay AID330 (DTP/NCI, 2004)
Where “and” joins values, the source holds several entries; their conditions need not be identical. Equal values may be shown once. Toxic doses and inconclusive results are not listed.

Test system: P388 leukemia ip, CD2F1 mice, survival T/C
Assay: NCI In Vivo Anticancer Drug Screen. Data for tumor model P388 Leukemia (intraperitoneal) in CD2F1 (CDF1) mice
Conditions: endpoint: median survival time, higher = longer survival
Procedure, shortened: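 Mice carrying the transplanted tumor received test compound or vehicle. Survival was recorded in each group, and the value is the treated-group measurement divided by that of the vehicle-treated control group.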

[1] = dose: 60.0 mg/kg/injection, schedule: Q01DX005 (ip), vehicle: Klucel (hydroxypropylcellulose) (HPC)
[2] = dose: 120.0 mg/kg/injection, schedule: Q01DX005 (ip), vehicle: Klucel (hydroxypropylcellulose) (HPC)
[3] = dose: 240.0 mg/kg/injection, schedule: Q01DX005 (ip), vehicle: Klucel (hydroxypropylcellulose) (HPC)
[4] = dose: 50.0 mg/kg/injection, schedule: Q01DX009 (ip), vehicle: Klucel (hydroxypropylcellulose) (HPC)
[5] = dose: 100.0 mg/kg/injection, schedule: Q01DX009 (ip), vehicle: Klucel (hydroxypropylcellulose) (HPC)
[6] = dose: 200.0 mg/kg/injection, schedule: Q01DX009 (ip), vehicle: Klucel (hydroxypropylcellulose) (HPC)
[7] = dose: 100.0 mg/kg/injection, schedule: Q01DX009 (ip), vehicle: saline with Tween-80
[8] = dose: 50.0 mg/kg/injection, schedule: Q01DX005 (ip), vehicle: saline with Tween-80
[9] = dose: 100.0 mg/kg/injection, schedule: Q01DX005 (ip), vehicle: saline with Tween-80
[10] = dose: 200.0 mg/kg/injection, schedule: Q01DX005 (ip), vehicle: saline with Tween-80
[11] = dose: 50.0 mg/kg/injection, schedule: Q01DX005 (ip), vehicle: saline
[12] = dose: 100.0 mg/kg/injection, schedule: Q01DX005 (ip), vehicle: saline
[13] = dose: 200.0 mg/kg/injection, schedule: Q01DX005 (ip), vehicle: saline
[14] = dose: 25.0 mg/kg/injection, schedule: Q01DX005 (ip), vehicle: saline

CN1C(=O)C(Cc2cnc[nH]2)NC1=S (stereo not drawn)
T/C [1]: 101 % of control
T/C [2]: 111 % of control
T/C [3]: 93 % of control

CC(=O)OC1C=CCC2C(=O)c3cccc(O)c3C(=O)C12 (stereo not drawn)
T/C [1]: 107 % of control
T/C [2]: 105 % of control
T/C [3]: 97 % of control

COc1ccc(C2CC(c3ccccc3)=Nc3ccccc3S2)cc1OC (stereo not drawn)
T/C [4]: 102 % of control
T/C [5]: 90 % of control
T/C [6]: 96 % of control

C[As](C)SCCC(CCCCC(=O)O)S[As](C)C (stereo not drawn)
T/C (dose: 12.5 mg/kg/injection, schedule: Q01DX009 (ip), vehicle: Klucel (hydroxypropylcellulose) (HPC)): 109 % of control and 111 % of control
T/C (dose: 25.0 mg/kg/injection, schedule: Q01DX009 (ip), vehicle: Klucel (hydroxypropylcellulose) (HPC)): 122 % of control
T/C (dose: 25.0 mg/kg/injection, schedule: Q04DX003 (ip), vehicle: saline with Tween-80): 106 % of control
T/C [4]: 100 % of control
T/C (dose: 50.0 mg/kg/injection, schedule: Q04DX003 (ip), vehicle: saline with Tween-80): 97 % of control
T/C (dose: 100.0 mg/kg/injection, schedule: Q04DX003 (ip), vehicle: saline with Tween-80): 108 % of control

CCC(C)NCCNCCNC(C)CC (stereo not drawn)
T/C (dose: 6.25 mg/kg/injection, schedule: Q01DX009 (ip), vehicle: saline): 100 % of control
T/C (dose: 12.5 mg/kg/injection, schedule: Q01DX009 (ip), vehicle: saline): 100 % of control
T/C (dose: 25.0 mg/kg/injection, schedule: Q01DX009 (ip), vehicle: saline): 100 % of control

C/C(=N\NC(=S)N1CCCC1)c1cccc(C)n1
T/C (dose: 12.5 mg/kg/injection, schedule: Q01DX005 (ip), vehicle: saline + Tween-80 + alcohol): 104 % of control and 106 % of control
T/C (dose: 25.0 mg/kg/injection, schedule: Q01DX005 (ip), vehicle: saline + Tween-80 + alcohol): 108 % of control and 113 % of control
T/C (dose: 50.0 mg/kg/injection, schedule: Q01DX005 (ip), vehicle: saline + Tween-80 + alcohol): 122 % of control

N#[N+]c1c(C(=O)O)[nH]c(=O)[nH]c1=O
T/C (dose: 16.0 mg/kg/injection, schedule: Q01DX009 (ip), vehicle: saline sonified): 109 % of control
T/C (dose: 32.0 mg/kg/injection, schedule: Q01DX009 (ip), vehicle: saline sonified): 104 % of control
T/C (dose: 64.0 mg/kg/injection, schedule: Q01DX009 (ip), vehicle: saline sonified): 100 % of control
T/C (dose: 125.0 mg/kg/injection, schedule: Q01DX009 (ip), vehicle: saline sonified): 104 % of control
T/C (dose: 250.0 mg/kg/injection, schedule: Q01DX009 (ip), vehicle: saline sonified): 109 % of control
T/C (dose: 500.0 mg/kg/injection, schedule: Q01DX009 (ip), vehicle: saline sonified): 104 % of control

NC(=S)N/N=C/c1nccc2ccccc12
T/C (dose: 9.4 mg/kg/injection, schedule: Q01DX009 (ip), vehicle: saline with Tween-80): 153 % of control
T/C (dose: 37.5 mg/kg/injection, schedule: Q01DX009 (ip), vehicle: saline): 150 % of control
T/C (dose: 75.0 mg/kg/injection, schedule: Q01DX009 (ip), vehicle: saline): 150 % of control
T/C [7]: 152 % of control
T/C (dose: 200.0 mg/kg/injection, schedule: Q01DX009 (ip), vehicle: saline with Tween-80): 98 % of control

C=C1C(C2=NCCN2O)OC2OC(C)(C)OC12 (stereo not drawn)
T/C (dose: 100.0 mg/kg/injection, schedule: Q04DX002 (ip), vehicle: Klucel (hydroxypropylcellulose) (HPC)): 98 % of control
T/C (dose: 200.0 mg/kg/injection, schedule: Q04DX002 (ip), vehicle: Klucel (hydroxypropylcellulose) (HPC)): 103 % of control
T/C (dose: 400.0 mg/kg/injection, schedule: Q04DX002 (ip), vehicle: Klucel (hydroxypropylcellulose) (HPC)): 97 % of control

O=c1c2[nH]c3ccccc3sc=2c(=O)n1-c1cccc(C(F)(F)F)c1
T/C [8]: 104 % of control
T/C [9]: 100 % of control
T/C [10]: 101 % of control

O=c1c2ccccc2nc2ccc(Cl)nn12
T/C (dose: 50.0 mg/kg/injection, schedule: Q01DX009 (ip), vehicle: saline with Tween-80): 95 % of control
T/C [7]: 100 % of control

CCCCCCCCCCCC(=O)OC/C=C/COC(=O)c1ccccc1
T/C [4]: 100 % of control
T/C [5]: 108 % of control
T/C [6]: 96 % of control

CN(C)c1ccc([N+]([O-])=Nc2ccc3ccccc3c2)cc1
T/C (dose: 30.0 mg/kg/injection, schedule: Q01DX005 (ip), vehicle: saline with Tween-80): 96 % of control
T/C (dose: 60.0 mg/kg/injection, schedule: Q01DX005 (ip), vehicle: saline with Tween-80): 87 % of control and 96 % of control
T/C (dose: 120.0 mg/kg/injection, schedule: Q01DX005 (ip), vehicle: saline with Tween-80): 89 % of control
T/C (dose: 240.0 mg/kg/injection, schedule: Q01DX005 (ip), vehicle: saline with Tween-80): 90 % of control

O=C(CN1CCCCCC1)Nc1ccc2c(c1)C(=O)c1ccc(NC(=O)CN3CCCCCC3)cc1C2=O
T/C (dose: 50.0 mg/kg/injection, schedule: Q01DX005 (ip), vehicle: Klucel (hydroxypropylcellulose) (HPC)): 89 % of control
T/C (dose: 50.0 mg/kg/injection, schedule: Q01DX005 (ip), vehicle: acid diluted with saline): 97 % of control
T/C (dose: 100.0 mg/kg/injection, schedule: Q01DX005 (ip), vehicle: Klucel (hydroxypropylcellulose) (HPC)): 89 % of control
T/C (dose: 100.0 mg/kg/injection, schedule: Q01DX005 (ip), vehicle: acid diluted with saline): 99 % of control
T/C (dose: 200.0 mg/kg/injection, schedule: Q01DX005 (ip), vehicle: acid diluted with saline): 100 % of control

NC(N)=NC(N)=NCCS(=O)(=O)O
T/C [11]: 110 % of control
T/C [12]: 110 % of control
T/C [13]: 117 % of control

CC(C(N)C(=O)NC(C(=O)O)C1OC(n2ccc(=O)[nH]c2=O)C(O)C1O)C(O)c1ccc(O)cn1 (stereo not drawn)
T/C [14]: 100 % of control
T/C [11]: 103 % of control
T/C [12]: 100 % of control

Cc1ccc(S(=O)(=O)Oc2ccc3sc4cccc(NCCN(C)C)c4c(=O)c3c2)cc1
T/C (dose: 12.5 mg/kg/injection, schedule: Q01DX005 (ip), vehicle: saline with Tween-80): 104 % of control
T/C (dose: 25.0 mg/kg/injection, schedule: Q01DX005 (ip), vehicle: saline with Tween-80): 93 % of control
T/C [8]: 90 % of control and 96 % of control
T/C [9]: 92 % of control and 94 % of control
T/C [10]: 92 % of control
T/C (dose: 400.0 mg/kg/injection, schedule: Q01DX005 (ip), vehicle: saline with Tween-80): 94 % of control

NC(=O)C(CCCN=C(N)N)NC(=O)c1ccccc1 (stereo not drawn)
T/C [11]: 105 % of control
T/C [12]: 99 % of control
T/C [13]: 105 % of control

Nc1ccc(-c2nc(N)c3[nH]cnc3n2)cc1
T/C (dose: 12.5 mg/kg/injection, schedule: Q01DX005 (ip), vehicle: suspension in saline): 97 % of control
T/C (dose: 25.0 mg/kg/injection, schedule: Q01DX005 (ip), vehicle: suspension in saline): 102 % of control
T/C (dose: 50.0 mg/kg/injection, schedule: Q01DX005 (ip), vehicle: suspension in saline): 100 % of control
T/C (dose: 100.0 mg/kg/injection, schedule: Q01DX005 (ip), vehicle: suspension in saline): 99 % of control

N#CC1CCN(Cc2ccccc2)C(C#N)C1 (stereo not drawn)
T/C (dose: 15.0 mg/kg/injection, schedule: Q01DX005 (ip), vehicle: Klucel (hydroxypropylcellulose) (HPC)): 105 % of control
T/C (dose: 30.0 mg/kg/injection, schedule: Q01DX005 (ip), vehicle: Klucel (hydroxypropylcellulose) (HPC)): 106 % of control
T/C [1]: 102 % of control and 106 % of control

CP(=O)(N/N=C\C(=O)O)c1ccccc1 (stereo not drawn)
T/C (dose: 12.5 mg/kg/injection, schedule: Q01DX009 (ip), vehicle: other): 99 % of control
T/C (dose: 25.0 mg/kg/injection, schedule: Q01DX009 (ip), vehicle: other): 91 % of control
T/C (dose: 50.0 mg/kg/injection, schedule: Q01DX009 (ip), vehicle: other): 100 % of control
T/C (dose: 100.0 mg/kg/injection, schedule: Q01DX009 (ip), vehicle: other): 97 % of control
T/C (dose: 200.0 mg/kg/injection, schedule: Q01DX009 (ip), vehicle: other): 98 % of control
T/C (dose: 400.0 mg/kg/injection, schedule: Q01DX009 (ip), vehicle: other): 97 % of control

CC[C@@H]1CN2CCc3c([nH]c4ccccc34)[C@@H]2C[C@@H]1/C(=C\OC)C(=O)OC
T/C [14]: 100 % of control and 96 % of control
T/C [11]: 98 % of control and 107 % of control and 108 % of control
T/C [12]: 109 % of control (2×) and 123 % of control
